Experimental data taken from US9676780B2, “Piperazine-substituted [1,2,4]triazolo[1,5-C]quinazolin-5-amine compounds with A2A antagonist properties” (MERCK SHARP & DOHME CORP., priority 2012, dated 2017).

What follows are compounds tested against T1, human A2a receptor (Homo sapiens, UniProt P29274) (assay: A2a receptor competition binding assay (Scintillation Proximity, tritiated radioligand)). Conditions: membranes from HEK293 cells expressing the human A2a receptor; 0.5 nM tritiated ligand; SPA beads; one hour at room temperature; read-out: A2a EC50.
T1 construct: purchased Perkin-Elmer RBHA2AM400UA; host or cells: HEK293
T1 sequence (P29274 whole entry): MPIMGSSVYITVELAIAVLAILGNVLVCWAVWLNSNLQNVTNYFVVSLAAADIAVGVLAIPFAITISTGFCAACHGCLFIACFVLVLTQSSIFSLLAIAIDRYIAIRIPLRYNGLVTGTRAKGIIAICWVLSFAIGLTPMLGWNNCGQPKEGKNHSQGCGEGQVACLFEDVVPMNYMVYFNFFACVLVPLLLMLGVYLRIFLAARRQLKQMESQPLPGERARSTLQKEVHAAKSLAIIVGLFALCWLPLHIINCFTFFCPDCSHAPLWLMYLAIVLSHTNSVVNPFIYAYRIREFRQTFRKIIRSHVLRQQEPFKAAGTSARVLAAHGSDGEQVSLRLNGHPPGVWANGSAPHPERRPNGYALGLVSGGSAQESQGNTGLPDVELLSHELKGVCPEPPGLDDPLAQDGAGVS
Experimental: Binding affinities of compounds of the invention for the human A2a receptor were determined in a competition binding assay using Scintillation Proximity technology. […] The beads were then allowed to settle to the bottom of the wells for 1 hr, after which the membrane-associated radioactivity was determined by scintillation counting in a TopCount microplate reader. Ki values were determined using the Cheng-Prusoff equation.
• HEK293 cells expressing the human, rat, dog or monkey adenosine 2a receptor (Purchased from Perkin-Elmer # RBHA2AM400UA). • The Tritiated compound was prepared in-house by MRL Radiochemistry according to published methods. • Wheatgerm agglutinin-coated yttrium silicate SPA beads (GE Healthcare #RPNQ0023). […] This is a 2.5× solution. The final concentration in the assay is 0.5 nM. Calculate the concentration by counting two 5 ul aliquots. Membrane Preparation • Use 0.25 ug of membrane/well. Dilute membranes to 9.7 ug/ml in assay buffer. Treat with 20 ug/ml adenosine deaminase (ADA) for 15 minutes at room temperature to degrade endogenous adenosine. Membrane-Bead Mixture • Use 100 ug/well wheatgerm agglutinin-coated yttrium silicate SPA beads. • Mix ADA-treated membranes and SPA beads together for 30 min prior to assay. […] Incubate for one hour at room temperature with agitation. • Include total binding (assay buffer+1% DMSO) and non-specific binding (CGS15943, 1 uM) wells. Counting • Allow the beads to settle for one hour. • Count in TopCount. Calculations • A curve fitting program (i.e., Prism, Activity Base, Chemcart) is used to determine the EC50.
The Ki value is calculated using the Cheng-Prusoff equation. Ki=EC50/(1+(radioligand concentration/Kd))

Row | SMILES | EC50 [nM]
1 | CCC1CN(C(=O)c2ccc(F)cc2)CC(C)N1Cc1nc2c3cccc(OC)c3nc(N)n2n1 (stereo not shown) [Ex-46] | 50.2
2 | COc1cccc2c1nc(N)n1nc(CN3CCN(c4ccccc4C(F)(F)F)CC3C)nc21 (stereo not shown) [Ex-47] | 59.2
3 | COc1cccc2c1nc(N)n1nc(CN3CCN(c4ccc(C(F)(F)F)cc4)CC3C)nc21 (stereo not shown) [Ex-48] | 18.2
4 | COc1cccc2c1nc(N)n1nc(C(C)N3CCN(c4ccc(F)cc4)CC3C)nc21 (stereo not shown) [Ex-49] | 4.9
5 | COc1cccc2c1nc(N)n1nc(C(C)N3CCN(c4ccc(F)cc4)C[C@H]3C)nc21 (stereo partly drawn) [Ex-50, 2-{1-[(2R)-4-(4-fluorophenyl)-2-methylpiperazin-1-yl]ethyl}-7-methoxy[1,2,4]triazolo[1,5-c]quinazolin-5-amine] | 139
6 | COc1cccc2c1nc(N)n1nc(CN3CCN(c4nccs4)CC3C)nc21 (stereo not shown) [Ex-51] | 73.8
7 | COc1cccc2c1nc(N)n1nc(CN3CCN(c4noc(C)n4)CC3C)nc21 (stereo not shown) [Ex-52] | 48.5
8 | COc1cccc2c1nc(N)n1nc(CN3CCN(c4noc(C5CC5)n4)CC3C)nc21 (stereo not shown) [Ex-53] | 15.9
9 | COc1cccc2c1nc(N)n1nc(CN3CCN(c4nnn[nH]4)CC3C)nc21 (stereo not shown) [Ex-54] | 106
10 | COc1cccc2c1nc(N)n1nc(CN3CCN(c4cccc(C(F)(F)F)c4)C[C@H]3C)nc21 [Ex-55] | 5.2
11 | COc1cccc2c1nc(N)n1nc(CN3CCN(c4ccccc4Cl)CC3C)nc21 (stereo not shown) [Ex-58] | 12.4
12 | COc1cccc2c1nc(N)n1nc(CN3CCN(c4ccccc4C#N)CC3C)nc21 (stereo not shown) [Ex-59] | 30.9
13 | COc1cccc2c1nc(N)n1nc(CN3CCN(c4cccc(C#N)c4)CC3C)nc21 (stereo not shown) [Ex-60] | 18.8
14 | COc1cccc2c1nc(N)n1nc(CN3CCN(c4ccc(C#N)cc4)CC3C)nc21 (stereo not shown) [Ex-61] | 11.4
15 | COc1cccc2c1nc(N)n1nc(CN3CCN(c4ccc5ncccc5c4)CC3C)nc21 (stereo not shown) [Ex-63] | 1.44
16 | COc1cccc2c1nc(N)n1nc(CN3CCN(c4ccccc4C)CC3C)nc21 (stereo not shown) [Ex-64] | 13.1
17 | COc1cccc2c1nc(N)n1nc(CN3CCN(c4cccc(C)c4)CC3C)nc21 (stereo not shown) [Ex-65] | 7
18 | COc1cccc2c1nc(N)n1nc(CN3CCN(c4ccc(C)cc4)CC3C)nc21 (stereo not shown) [Ex-66] | 3
19 | COc1cccc2c1nc(N)n1nc(CN3CCN(c4cccc5ccccc45)CC3C)nc21 (stereo not shown) [Ex-71] | 11.5
20 | COc1cccc2c1nc(N)n1nc(CN3CCN(c4ccc5ccccc5c4)CC3C)nc21 (stereo not shown) [Ex-72] | 6.7
21 | COc1cccc2c1nc(N)n1nc(CN3CCN(c4nnc(C)s4)CC3C)nc21 (stereo not shown) [Ex-74] | 31.8
22 | COc1cccc2c1nc(N)n1nc(CN3CCN(c4nncs4)CC3C)nc21 (stereo not shown) [Ex-75] | 47.4
23 | COCc1nc(N2CCN(Cc3nc4c5cccc(OC)c5nc(N)n4n3)C(C)C2)no1 (stereo not shown) [Ex-79] | 21.1
24 | COc1cccc2c1nc(N)n1nc(CN3CCN(c4noc(C(C)C)n4)CC3C)nc21 (stereo not shown) [Ex-80] | 19.4
25 | COc1cccc2c1nc(N)n1nc(CN3CCN(c4ncc(C(=O)O)s4)CC3C)nc21 (stereo not shown) [Ex-81] | 68.2
26 | COc1cccc2c1nc(N)n1nc(CN3CCN(c4noc(=O)[nH]4)CC3C)nc21 (stereo not shown) [Ex-82] | 628

Row | SMILES | EC50 [nM]
27 | COc1cccc2c1nc(N)n1nc(CN3CCN(c4noc(C(F)(F)F)n4)CC3C)nc21 (stereo not shown) [Ex-83] | 47.6
28 | COc1cccc2c1nc(N)n1nc(CN3CCN(c4nnc(C)[nH]4)CC3C)nc21 (stereo not shown) [Ex-84] | 57.2
29 | CCc1nc(N2CCN(Cc3nc4c5cccc(OC)c5nc(N)n4n3)C(C)C2)no1 (stereo not shown) [Ex-87] | 21.5
30 | COc1cccc2c1nc(N)n1nc(CN3CCN(c4noc(C(C)(C)C)n4)CC3C)nc21 (stereo not shown) [Ex-88] | 22.2
31 | COc1cccc2c1nc(N)n1nc(CN3CCN(c4ncns4)CC3C)nc21 (stereo not shown) [Ex-89] | 72.2
32 | COc1cccc2c1nc(N)n1nc(CN3CCN(C(=O)c4nc(C5CC5)no4)CC3C)nc21 (stereo not shown) [Ex-90] | 53.5
33 | COc1cccc2c1nc(N)n1nc(CN3CCN(c4nc(C(C)(C)C)no4)CC3C)nc21 (stereo not shown) [Ex-91] | 42.2
34 | COc1cccc2c1nc(N)n1nc(CN3CCN(C(C)c4ccc(F)cc4F)CC3C)nc21 (stereo not shown) [Ex-92] | 5.2
35 | COc1cccc2c1nc(N)n1nc(CN3CCN(C(C)c4ccc(F)cc4F)CC3C)nc21 (stereo not shown) [Ex-93] | 4.6
36 | COCCOc1ccc(N2CCN(Cc3nc4c5cccc(OC)c5nc(N)n4n3)C(C)C2)cc1 (stereo not shown) [Ex-94] | 1.85
37 | COc1cccc2c1nc(N)n1nc(CN3CCN(c4ccc(F)cc4F)CC3C)nc21 (stereo not shown) [Ex-95] | 3.1
38 | COc1cc(F)ccc1N1CCN(Cc2nc3c4cccc(OC)c4nc(N)n3n2)C(C)C1 (stereo not shown) [Ex-96] | 3.41
39 | COc1cccc2c1nc(N)n1nc(CN3CCN(c4ccnc(C(F)(F)F)c4)CC3C)nc21 (stereo not shown) [Ex-97] | 18.2
40 | COc1cccc2c1nc(N)n1nc(CN3CCN(c4cc(C)ccn4)CC3C)nc21 (stereo not shown) [Ex-98] | 39.7
41 | COc1cccc2c1nc(N)n1nc(CN3CCN(c4cccc(C)n4)CC3C)nc21 (stereo not shown) [Ex-99] | 46.3
42 | COc1cccc2c1nc(N)n1nc(CN3CCN(c4ccncc4C(F)(F)F)CC3C)nc21 (stereo not shown) [Ex-100] | 29.4
43 | COc1cccc2c1nc(N)n1nc(CN3CCN(c4cc(F)cc(Cl)c4)CC3C)nc21 (stereo not shown) [Ex-101] | 4.95
44 | COc1cccc2c1nc(N)n1nc(CN3CCN(c4ccc(F)c(Cl)c4)CC3C)nc21 (stereo not shown) [Ex-102] | 2.14
45 | COc1cc(Cl)cc(N2CCN(Cc3nc4c5cccc(OC)c5nc(N)n4n3)C(C)C2)c1 (stereo not shown) [Ex-103] | 5.56
46 | COc1cccc2c1nc(N)n1nc(CN3CCN(c4ccncc4F)CC3C)nc21 (stereo not shown) [Ex-104] | 23.1
47 | COc1cc(N2CCN(Cc3nc4c5cccc(OC)c5nc(N)n4n3)C(C)C2)ccn1 (stereo not shown) [Ex-105] | 16.8
48 | COc1cccc2c1nc(N)n1nc(CN3CCN(c4cc(F)cc(F)c4)CC3C)nc21 (stereo not shown) [Ex-106] | 4.73
49 | COc1cccc2c1nc(N)n1nc(CN3CCN(c4cc(F)ccn4)CC3C)nc21 (stereo not shown) [Ex-107] | 6.98
50 | COc1cccc2c1nc(N)n1nc(CN3CCN(c4nsnc4OCCO)CC3C)nc21 (stereo not shown) [Ex-109] | 4.66
51 | COc1cccc2c1nc(N)n1nc(CN3CCN(c4ccc5nc(C6CC6)oc5c4)CC3C)nc21 (stereo not shown) [Ex-110] | 1.1
52 | COc1cccc2c1nc(N)n1nc(CN3CCN(c4cccc5c4cnn5C)CC3C)nc21 (stereo not shown) [Ex-112] | 1.6

Row | SMILES | EC50 [nM]
53 | COc1cccc2c1nc(N)n1nc(CN3CCN(c4cnccn4)CC3C)nc21 (stereo not shown) [Ex-113] | 27.3
54 | COc1cccc2c1nc(N)n1nc(CN3CCN(c4cc(C#N)ccn4)CC3C)nc21 (stereo not shown) [Ex-114] | 12.3
55 | COc1cc(N2CCN(Cc3nc4c5cccc(OC)c5nc(N)n4n3)C(C)C2)ccc1F (stereo not shown) [Ex-115] | 1.39
56 | COc1cncc(N2CCN(Cc3nc4c5cccc(OC)c5nc(N)n4n3)C(C)C2)c1OC (stereo not shown) [Ex-116] | 3.03
57 | COc1cccc2c1nc(N)n1nc(CN3CCN(c4ccc(C(F)(F)F)c(C(F)(F)F)c4)CC3C)nc21 (stereo not shown) [Ex-117] | 12.7
58 | COc1ccc(N2CCN(Cc3nc4c5cccc(OC)c5nc(N)n4n3)C(C)C2)cc1C(F)(F)F (stereo not shown) [Ex-118] | 1.25
59 | COc1cccc2c1nc(N)n1nc(CN3CCN(c4ccc(N5CCOCC5)cc4)CC3C)nc21 (stereo not shown) [Ex-119] | 1.97
60 | COc1cccc2c1nc(N)n1nc(CN3CCN(c4cc(C(F)(F)F)cc(C(F)(F)F)c4)CC3C)nc21 (stereo not shown) [Ex-120] | 20.7
61 | COc1ccc(Cl)c(N2CCN(Cc3nc4c5cccc(OC)c5nc(N)n4n3)C(C)C2)c1 (stereo not shown) [Ex-121] | 13.2
62 | COc1cccc2c1nc(N)n1nc(CN3CCN(c4ncc(F)cc4F)CC3C)nc21 (stereo not shown) [Ex-122] | 4.86
63 | COc1cccc2c1nc(N)n1nc(CN3CCN(c4cc(C(F)F)ccn4)CC3C)nc21 (stereo not shown) [Ex-123] | 4.25
64 | COc1cccc2c1nc(N)n1nc(CN3CCN(c4cc(Cl)cc(Cl)c4)CC3C)nc21 (stereo not shown) [Ex-124] | 2.82
65 | COc1cc(N2CCN(Cc3nc4c5cccc(OC)c5nc(N)n4n3)C(C)C2)ccc1Cl (stereo not shown) [Ex-125] | 1.03
66 | COc1cccc2c1nc(N)n1nc(CN3CCN(c4cccc(N(C)C)c4)CC3C)nc21 (stereo not shown) [Ex-126] | 2.39
67 | COc1cccc2c1nc(N)n1nc(CN3CCN(c4ccc(Cl)c(Cl)c4)CC3C)nc21 (stereo not shown) [Ex-127] | 3.08
68 | COc1cccc2c1nc(N)n1nc(CN3CCN(c4ccc5c(c4)c(C)nn5C)CC3C)nc21 (stereo not shown) [Ex-128] | 0.964
69 | COc1cccc2c1nc(N)n1nc(CN3CCN(c4c(C)nn(C)c4C)CC3C)nc21 (stereo not shown) [Ex-129] | 11.6
70 | COc1cccc2c1nc(N)n1nc(CN3CCN(c4ccc5c(cnn5C)c4)CC3C)nc21 (stereo not shown) [Ex-130] | 0.898
71 | COc1cccc2c1nc(N)n1nc(CN3CCN(c4ccc5nn(C)cc5c4)CC3C)nc21 (stereo not shown) [Ex-131] | 0.698
72 | COc1cccc2c1nc(N)n1nc(CN3CCN(c4cccc5nn(C)cc45)CC3C)nc21 (stereo not shown) [Ex-132] | 2.04
73 | COc1cc(OC)cc(N2CCN(Cc3nc4c5cccc(OC)c5nc(N)n4n3)C(C)C2)c1 (stereo not shown) [Ex-133] | 1.68
74 | COc1cccc2c1nc(N)n1nc(CN3CCN(c4ccc(Cl)cn4)CC3C)nc21 (stereo not shown) [Ex-134] | 4.57
75 | COc1cccc2c1nc(N)n1nc(CN3CCN(c4nccnc4C)CC3C)nc21 (stereo not shown) [Ex-135] | 10.7
76 | COc1cccc2c1nc(N)n1nc(CN3CCN(c4ccc(F)c(C)n4)CC3C)nc21 (stereo not shown) [Ex-136] | 11.4
